Assay results published in patent publication US7601736B2, “Pyridine derivatives, a process for their preparation and a pharmaceutical composition containing the same” (SK Chemicals Co., Ltd., priority 2003, dated 2009).

Tests used:
[1] = test system: ICR (Institute of Cancer Research) mouse; experiment: Analgesic test (acetic acid-induced stretchings); type: in vivo; conditions: oral, 100 mg/kg
Experimental: Male ICR (Institute of Cancer Research) mouse with body weight of about 20 to 30 g were tested wherein each group had 6 mouses. After 1 hour of the oral administration of a test compound, acetic acid (in distilled water) was abdominally administered. For the duration of 10 minutes, the animals were observed regarding the number of stretchings and the number was compared with that of placebo treated group and the result is shown in the following table 7.

[2] = test system: ICR (Institute of Cancer Research) mouse; experiment: Croton oil-induced ear edema test; type: in vivo; conditions: oral, 100 mg/kg
Experimental: Male ICR (Institute of Cancer Research) mouse with body weight of about 20 to 30 g were tested wherein each group had 6 mouses. After 1 hour of the oral administration of a test compound, Croton oil (in acetone solution) was coated on one of the ears. After 4 hours, the thickness of the swollen ear in treated group was compared with the other unswollen ear and obtained the average increase rate in thickness of ear by the treatment.

[3] = test system: ICR (Institute of Cancer Research) mouse; experiment: Arachidonic acid-induced ear edema test; type: in vivo; conditions: oral, 100 mg/kg
Experimental: Male ICR (Institute of Cancer Research) mouse with body weight of about 20 to 30 g were tested wherein each group had 6 mouses. After 1 hour of the oral administration of a test compound, Arachidonic acid (in acetone solution) was coated on one of the ears. After 1 hour, the thickness of the swollen ear in treated group was compared with the other unswollen ear and obtained the average increase rate in thickness of ear by the treatment.

TNF-α [4] = experiment: Cytokine inhibitory activity in animal model (LPS-treated SD rats), plasma TNF-α; type: in vivo, Sprague Dawley (SD) rats; conditions: for TNF-α Inhibition Rate (Conc.) / inhibition in vivo at 40 mg/kg: SD rats, oral, LPS, 40 mg/kg; for inhibitory activity on production of TNF-α compared to Indomethacin: rat model, in words; for inhibition in vivo at 40 mg/kg: Rattus norvegicus, 2 h, read-out: TNF-α Inhibition Rate (Conc.)
Experimental: Sprague Dawley (SD) rats with body weights of about 180 to about 200 g were fasted (free drinking) and then tested. Test compounds were administered orally at 40 mg/kg and then abdominally administered with LPS 1 μg/mL after 1 hour. After 2 hours, the rats were sacrificed and bloods were collected from abdominal vein, stored at room temperature for about 2 hours, and then centrifuged at 12,000 rpm for about 2 minutes. Thus produced plasma was respectively collected and its TNF-α in each plasma was quantitated using mouse TNF-α ELISA kit based on the amount of recombinant TNF-α in rats. The plate used was coated with anti-rat TNF-α monoclone IgG antibodies. Likewise, for the test of IL-1α, IL-1α in each plasma was quantitated using the above plasma and mouse IL-1α ELISA kit based on the amount of recombinant IL-1α in rats. The plate used was coated with anti-rat IL-1α monoclone IgG antibodies. Further, for the test of IL-6, IL-6 in each plasma was quantitated using the above plasma and mouse IL-6 ELISA kit based on the amount of recombinant IL-6 in rats. Further, for the test of INF-γ, INF-γ in each plasma was quantitated using the above plasma and mouse INF-γ ELISA kit based on the amount of recombinant INF-γ in rats. The plate used was coated with anti-rat INF-γ monoclone IgG antibodies. From the above tests, inhibitory rates on the expression of each cytokine were obtained and they were compared to that of Indomethacin.

TNF-α [5] = experiment: Cytokine inhibitory activity in cells: LPS-induced TNF-α in RAW 264.7; type: cell-based, murine; conditions: for TNF-α Inhibition Rate (%) / inhibition at 1 µM / inhibition at 10 µM / inhibition at 100 µM / inhibition at 1000 µM: RAW 264.7, LPS 1 μg/mL; for inhibition at 1 µM / inhibition at 10 µM / inhibition at 100 µM / inhibition at 1000 µM: Mus musculus, RAW264.7, read-out: TNF-α Inhibition Rate (%); for inhibitory activity in RAW 264.7 cell line on the production of TNF-α, in words: compared to the control compounds
Experimental: General reagents used were purchased from Sigma-Aldrich chem. Co. and cytokine inhibitory activities were tested as follows. Mediums and reagents used in cell culture were purchased from GIBCO BRL (USA), and mouse TNF-α ELISA kit was purchased from R&D system (USA). The apparatus used ELISA reader (Spectra max-Plus 384, Molecular Device, USA).
Murine macrophage cell line RAW 264.7 was kindly provided by Korean Tissue Culture Center (KTCC). The cell line was cultured in DMEM medium containing 10% FBS, in a cell culturing device at the condition of 37° C., 5% CO2. First, murine RAW 264.7 was cultured in DMEM medium containing 10% FBS for about 24 hours, and cells were planted 200 μL each in 96 well plates at the concentration of 5×10^5/mL and cultured for about 24 hours. Then, test compounds were treated at various concentrations and then reacted at 37° C. for about 1 hour, wherein 1 μg/mL of lipopolysaccharide (LPS) was added thereto and reacted at 37° C. for about 12 hours. The supernatant was recovered and the amount of murine TNF-α on the medium was quantitated using ELISA kit. Thalidomide was respectively used as a positive and a negative control to compare the activities and the results are shown in the following tables 4a -4c.

SMILES	inhibitory activity on production of TNF-α compared to Indomethacin (TNF-α [4])	TNF-α Inhibition Rate (%) (TNF-α [5]; test conc. 1 μM)	TNF-α Inhibition Rate (%) (TNF-α [5]; test conc. 10 μM)	TNF-α Inhibition Rate (%) (TNF-α [5]; test conc. 100 μM)	TNF-α Inhibition Rate (%) (TNF-α [5]; test conc. 1 mM)	inhibition in vivo at 40 mg/kg (TNF-α [4]) [%]	inhibition at 1 µM (TNF-α [5]; test conc. 1 μM) [%]	inhibition at 10 µM (TNF-α [5]; test conc. 10 μM) [%]	inhibition at 100 µM (TNF-α [5]; test conc. 100 μM) [%]	inhibition at 1000 µM (TNF-α [5]; test conc. 1 mM) [%]	inhibitory activity in RAW 264.7 cell line on the production of TNF-α, in words (TNF-α [5])	also measured
Cc1ccc(-c2cc(C(F)(F)F)nn2-c2ccc(S(N)(=O)=O)cc2)cc1 [Celecoxib, reference compound]												Inhibition Rate (%) [1]: 81%; Inhibition Rate (%) [2]: 35%; Inhibition Rate (%) [3]: 33%
CC(=O)Oc1nc(C)cc2c1C(=O)OCC2 [Ex. 21, 6-methyl-1-oxo-3,4-dihydro-1H-pyrano[3,4-c]pyridine-8-yl acetic ester]	1.5 or 2 times greater	9	15	34	77							TNF-α Inhibition Rate (Conc.) (TNF-α [4]): 93% (40 mg/kg)
Cc1cc2c(c(-c3ccc(F)cc3)n1)C(=O)OCC2 [Ex. 30, 8-(4-fluorophenyl)-6-methyl-3,4-dihydro-pyrano[3,4-c]pyridine-1-on]	1.5 or 2 times greater					79	100	100	100	100	superiorities over to the control compounds	
Cc1cc2c(c(N3CCCCC3)n1)C(=O)OCC2 [Ex. 32, 6-methyl-8-piperidine-1-yl-3,4-dihydro-pyrano[3,4-c]pyridine-1-on]	1.5 or 2 times greater					74	69	78	89	100		
Cc1cc2c(c(N3CCOCC3)n1)C(=O)OCC2 [Ex. 33, 6-methyl-8-morpholine-4-yl-3,4-dihydro-pyrano[3,4-c]pyridine-1-on]	1.5 or 2 times greater					90		9	18	29		
Cc1cc2c(c(N)n1)C(=O)OCC2 [Ex. 53, 8-amino-6-methyl-3,4-dihydro-pyrano[3,4-c]pyridine-1-on]						53	85	100	100	100	superiorities over to the control compounds	
Cc1nc(-c2ccccc2)cc2c1C(=O)OCC2 [Ex. 77, 8-methyl-6-phenyl-3,4-dihydro-pyrano[3,4-c]pyridine-1-on]						66	68	76	89	100	superiorities over to the control compounds	
CC(=O)Oc1nc(-c2ccccc2)cc2c1C(=O)OCC2 [Ex. 78, 1-oxo-6phenyl-3,4-dihydro-1H-pyrano[3,4-c]pyridine-8-yl acetic ester]		79	85	98	100						superiorities over to the control compounds	TNF-α Inhibition Rate (Conc.) (TNF-α [4]): 68% (40 mg/kg)
COc1nc(-c2ccccc2)cc2c1C(=O)OCC2 [Ex. 79, 8-methoxy-6-phenyl-3,4-dihydro-pyrano[3,4-c]pyridine-1-on]	1.5 or 2 times greater					78	76	8	94	100	superiorities over to the control compounds	
S=C1OCCc2ccncc21 [Ex. 113, 3,4-dihydro-pyrano[3,4-c]pyridine-1-thione]							10	19	28	42		
COc1ccc(CN2CCc3ccncc3C2=O)cc1 [Ex. 115, 2-(4methoxy-benzyl)-3,4-dihydro-2H-[2,7]naphtyridine-1-on]		50	59	65	78							TNF-α Inhibition Rate (Conc.) (TNF-α [4]): 43% (40 mg/kg)
O=C1NCCc2ccncc21 [Ex. 116, 3,4-dihydro-2H-[2,7]naphtyridine-1-on]			10	18	29							
O=C1c2cnccc2CCN1Cc1ccccc1 [Ex. 117, 2-benzyl-3,4-dihydro-2H-[2,7]naphtyridine-1-on]		10	18	29	35							TNF-α Inhibition Rate (Conc.) (TNF-α [4]): 69% (40 mg/kg)
O=C1OC(c2ccccc2)Cc2ccncc21 (stereo not drawn) [Ex. 120a, 3-phenyl-3,4-dihydro-pyrano[3,4-c]pyridine-1-on]							43	54	66	85		
O=C1NC(c2ccccc2)Cc2ccncc21 (stereo not drawn) [Ex. 120b, 3-phenyl-3,4-dihydro-2H-[2,7]naphtyridine-1-on]		26	30	32	42							
O=C1CCC(N2C(=O)c3ccccc3C2=O)C(=O)N1 (stereo not drawn) [Thalidomide, reference compound]							8	12	20	21		
